What was measured:
[1] = biological target: T1, various enzymes (Homo sapiens, UniProt Q13873); details: BMPR2; 1 uM
T1 sequence (Q13873 27-1038): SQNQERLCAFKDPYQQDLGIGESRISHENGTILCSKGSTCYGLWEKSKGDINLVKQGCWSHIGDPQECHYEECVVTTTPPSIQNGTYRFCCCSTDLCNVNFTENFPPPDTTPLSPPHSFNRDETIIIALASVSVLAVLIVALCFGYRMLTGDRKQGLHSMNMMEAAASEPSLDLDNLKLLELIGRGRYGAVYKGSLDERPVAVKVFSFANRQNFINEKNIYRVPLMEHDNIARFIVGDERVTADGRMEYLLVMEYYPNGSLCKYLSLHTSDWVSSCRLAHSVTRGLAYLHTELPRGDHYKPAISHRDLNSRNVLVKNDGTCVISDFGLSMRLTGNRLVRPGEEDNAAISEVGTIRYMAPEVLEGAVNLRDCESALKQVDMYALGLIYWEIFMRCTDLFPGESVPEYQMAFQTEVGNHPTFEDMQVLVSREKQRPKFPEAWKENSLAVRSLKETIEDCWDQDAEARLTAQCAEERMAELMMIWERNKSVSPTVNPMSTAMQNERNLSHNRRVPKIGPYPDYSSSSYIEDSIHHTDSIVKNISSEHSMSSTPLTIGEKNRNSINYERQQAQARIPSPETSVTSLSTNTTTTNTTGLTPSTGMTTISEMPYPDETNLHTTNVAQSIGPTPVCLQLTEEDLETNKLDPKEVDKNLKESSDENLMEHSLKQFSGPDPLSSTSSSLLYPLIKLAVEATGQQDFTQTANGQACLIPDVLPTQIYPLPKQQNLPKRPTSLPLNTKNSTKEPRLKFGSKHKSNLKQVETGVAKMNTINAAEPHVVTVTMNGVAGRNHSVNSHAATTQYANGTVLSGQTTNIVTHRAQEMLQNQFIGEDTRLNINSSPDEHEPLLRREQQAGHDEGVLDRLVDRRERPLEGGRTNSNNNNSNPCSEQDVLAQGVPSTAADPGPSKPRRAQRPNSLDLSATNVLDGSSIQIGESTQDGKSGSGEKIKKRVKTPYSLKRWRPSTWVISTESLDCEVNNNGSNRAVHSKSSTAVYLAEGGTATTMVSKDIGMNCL
Protocol: (§1) Ambit profiling from Eurofins (formerly Discoverx) was conducted in accordance with the manufacturer's instructions.

[2] = biological target: various enzymes (Homo sapiens, UniProt P78368); details: CSNK1G2; 1 uM
Protocol: as §1

[3] = biological target: various enzymes (Homo sapiens, UniProt P19525); details: PRKR; 1 uM
Protocol: as §1

[4] = biological target: various enzymes (Homo sapiens, UniProt P57059); details: SIK; 1 uM
Protocol: as §1

[5] = biological target: T2, various enzymes (Homo sapiens, UniProt Q12852); details: DLK; 1 uM
T2 sequence (Q12852 1-859): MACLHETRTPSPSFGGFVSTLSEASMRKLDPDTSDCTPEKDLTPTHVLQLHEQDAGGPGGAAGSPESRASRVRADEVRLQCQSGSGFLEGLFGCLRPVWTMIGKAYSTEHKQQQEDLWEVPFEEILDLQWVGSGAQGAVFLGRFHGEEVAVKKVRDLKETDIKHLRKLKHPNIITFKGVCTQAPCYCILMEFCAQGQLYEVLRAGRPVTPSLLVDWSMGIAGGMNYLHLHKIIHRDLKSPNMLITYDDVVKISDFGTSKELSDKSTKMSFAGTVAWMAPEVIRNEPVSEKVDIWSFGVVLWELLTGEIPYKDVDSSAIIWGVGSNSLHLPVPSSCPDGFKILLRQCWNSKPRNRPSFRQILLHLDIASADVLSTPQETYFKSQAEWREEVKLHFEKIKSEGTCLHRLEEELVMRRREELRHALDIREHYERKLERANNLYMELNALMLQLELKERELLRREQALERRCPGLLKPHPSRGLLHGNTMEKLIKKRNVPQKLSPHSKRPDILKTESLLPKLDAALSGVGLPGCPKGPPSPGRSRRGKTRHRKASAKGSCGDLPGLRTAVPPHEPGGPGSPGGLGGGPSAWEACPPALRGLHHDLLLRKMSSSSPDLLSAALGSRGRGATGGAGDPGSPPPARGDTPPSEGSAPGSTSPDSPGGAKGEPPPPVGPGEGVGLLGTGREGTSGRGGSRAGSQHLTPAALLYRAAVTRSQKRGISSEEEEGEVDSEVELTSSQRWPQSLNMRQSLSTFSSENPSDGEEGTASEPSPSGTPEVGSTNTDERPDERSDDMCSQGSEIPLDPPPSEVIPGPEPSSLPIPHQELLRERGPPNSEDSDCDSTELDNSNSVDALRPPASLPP
Protocol: as §1

Sequence of various enzymes (Homo sapiens, UniProt P19525) (P19525 whole entry): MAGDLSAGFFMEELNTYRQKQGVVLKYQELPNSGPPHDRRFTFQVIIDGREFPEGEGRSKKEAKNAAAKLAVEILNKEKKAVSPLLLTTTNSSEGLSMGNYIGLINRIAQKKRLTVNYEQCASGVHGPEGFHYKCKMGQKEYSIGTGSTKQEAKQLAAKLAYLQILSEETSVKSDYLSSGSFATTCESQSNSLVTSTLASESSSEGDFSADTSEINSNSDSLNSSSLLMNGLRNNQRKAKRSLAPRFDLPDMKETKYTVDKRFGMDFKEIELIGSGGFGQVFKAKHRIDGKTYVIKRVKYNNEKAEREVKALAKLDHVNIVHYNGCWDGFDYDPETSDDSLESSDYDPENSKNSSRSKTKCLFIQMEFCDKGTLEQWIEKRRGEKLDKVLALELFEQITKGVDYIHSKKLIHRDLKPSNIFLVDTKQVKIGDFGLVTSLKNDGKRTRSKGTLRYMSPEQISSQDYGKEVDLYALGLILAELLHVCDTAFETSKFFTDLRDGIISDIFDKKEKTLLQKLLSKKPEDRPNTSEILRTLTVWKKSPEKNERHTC
Sequence of various enzymes (Homo sapiens, UniProt P57059) (P57059 whole entry): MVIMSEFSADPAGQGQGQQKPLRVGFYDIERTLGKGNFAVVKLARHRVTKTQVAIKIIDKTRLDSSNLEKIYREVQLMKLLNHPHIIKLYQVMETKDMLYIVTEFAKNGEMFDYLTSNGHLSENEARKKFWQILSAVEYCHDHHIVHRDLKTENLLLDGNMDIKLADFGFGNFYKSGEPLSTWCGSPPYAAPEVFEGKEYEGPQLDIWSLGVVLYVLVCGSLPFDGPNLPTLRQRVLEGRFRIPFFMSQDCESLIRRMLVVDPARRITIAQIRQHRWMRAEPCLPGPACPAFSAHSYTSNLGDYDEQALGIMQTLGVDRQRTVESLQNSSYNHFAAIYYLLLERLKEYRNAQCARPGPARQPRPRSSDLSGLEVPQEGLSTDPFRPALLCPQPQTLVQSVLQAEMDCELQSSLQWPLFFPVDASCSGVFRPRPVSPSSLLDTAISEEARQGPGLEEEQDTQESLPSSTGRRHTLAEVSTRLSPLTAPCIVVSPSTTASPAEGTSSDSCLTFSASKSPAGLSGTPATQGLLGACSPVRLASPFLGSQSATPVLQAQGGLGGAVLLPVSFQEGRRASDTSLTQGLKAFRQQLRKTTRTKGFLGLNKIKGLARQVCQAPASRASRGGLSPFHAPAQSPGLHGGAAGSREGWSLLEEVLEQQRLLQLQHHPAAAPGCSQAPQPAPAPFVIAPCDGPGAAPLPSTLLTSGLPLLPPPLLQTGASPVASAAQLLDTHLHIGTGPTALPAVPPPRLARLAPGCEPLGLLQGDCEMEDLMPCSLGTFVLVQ
Sequence of various enzymes (Homo sapiens, UniProt P78368) (P78368 whole entry): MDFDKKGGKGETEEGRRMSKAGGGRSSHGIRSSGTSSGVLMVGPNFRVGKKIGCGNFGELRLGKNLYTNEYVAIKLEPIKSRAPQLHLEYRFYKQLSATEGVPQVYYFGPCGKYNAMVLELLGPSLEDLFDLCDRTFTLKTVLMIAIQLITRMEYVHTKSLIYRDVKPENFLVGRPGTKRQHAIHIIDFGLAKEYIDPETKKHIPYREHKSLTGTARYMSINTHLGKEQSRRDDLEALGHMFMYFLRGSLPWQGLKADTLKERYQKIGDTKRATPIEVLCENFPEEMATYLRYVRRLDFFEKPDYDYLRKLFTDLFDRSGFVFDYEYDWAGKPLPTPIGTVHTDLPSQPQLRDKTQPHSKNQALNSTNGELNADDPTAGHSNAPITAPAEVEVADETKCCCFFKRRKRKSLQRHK

Row | SMILES | Ambit profiling [1] | Ambit profiling [2] | Ambit profiling [3] | Ambit profiling [4] | Ambit profiling [5]
1 | CN1Cc2nn(C)cc2-c2cnc3[nH]cc(c3c2)-c2cnn(c2)CCCC1=O [Compound 41, (Z)-31,5-dimethyl-11H,21H,31H-5-aza-2(3,5)-pyrrolo[2,3-b]pyridina-1(4,1),3(4,3)-dipyrazolacyclononaphan-6-one] | 4.1 | 100 | 9.2 | 84 | 23
2 | CN1Cc2nn(C)c(C#N)c2-c2cnc3[nH]cc(c3c2)-c2cn(nc2C(F)(F)F)CCCC1=O [Compound 48, (Z)-31,5-dimethyl-6-oxo-13-(trifluoromethyl)-11H,21H,31H-5-aza-2(3,5)-pyrrolo[2,3-b]pyridina-1(4,1),3(4,3)-dipyrazolacyclononaphane-35-carbonitrile] | 85 | 100 | 100 | 59 | 100

Source: patent US12157741B2, “Macrocyclic inhibitors of DYRK1A” (DANA-FARBER CANCER INSTITUTE, INC., priority 2018, dated 2024)
